Legend:
SMARCA4 = target: T1, SMARCA4 (Homo sapiens, UniProt P51532); assay: Cellular degradation assay, SMARCA4 (Table 1); assay type: cell-based
T1 construct: endogenous in cells

SMARCA2 = target: T2, SMARCA2 (Homo sapiens, UniProt P51531); assay: SMARCA2 Cellular Degradation Assay (Western blot analysis on Jess platform); assay type: cell-based; conditions: for DC50 / Dmax: cellular degradation; for Fold Selectivity SMARCA4/2: ratio DC50 SMARCA4 / DC50 SMARCA2
T2 construct: endogenous in cells
Outline: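 Lysates of cells extracted from tumors, 5 μg total protein per capillary, were probed for SMARCA2 and β-actin by capillary Western on Jess using chemiluminescence and fluorescence detection. SMARCA2 peak area was background-subtracted and normalized to actin, then expressed as % remaining relative to vehicle control.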

T2 sequence (P51531 whole entry, species assumed): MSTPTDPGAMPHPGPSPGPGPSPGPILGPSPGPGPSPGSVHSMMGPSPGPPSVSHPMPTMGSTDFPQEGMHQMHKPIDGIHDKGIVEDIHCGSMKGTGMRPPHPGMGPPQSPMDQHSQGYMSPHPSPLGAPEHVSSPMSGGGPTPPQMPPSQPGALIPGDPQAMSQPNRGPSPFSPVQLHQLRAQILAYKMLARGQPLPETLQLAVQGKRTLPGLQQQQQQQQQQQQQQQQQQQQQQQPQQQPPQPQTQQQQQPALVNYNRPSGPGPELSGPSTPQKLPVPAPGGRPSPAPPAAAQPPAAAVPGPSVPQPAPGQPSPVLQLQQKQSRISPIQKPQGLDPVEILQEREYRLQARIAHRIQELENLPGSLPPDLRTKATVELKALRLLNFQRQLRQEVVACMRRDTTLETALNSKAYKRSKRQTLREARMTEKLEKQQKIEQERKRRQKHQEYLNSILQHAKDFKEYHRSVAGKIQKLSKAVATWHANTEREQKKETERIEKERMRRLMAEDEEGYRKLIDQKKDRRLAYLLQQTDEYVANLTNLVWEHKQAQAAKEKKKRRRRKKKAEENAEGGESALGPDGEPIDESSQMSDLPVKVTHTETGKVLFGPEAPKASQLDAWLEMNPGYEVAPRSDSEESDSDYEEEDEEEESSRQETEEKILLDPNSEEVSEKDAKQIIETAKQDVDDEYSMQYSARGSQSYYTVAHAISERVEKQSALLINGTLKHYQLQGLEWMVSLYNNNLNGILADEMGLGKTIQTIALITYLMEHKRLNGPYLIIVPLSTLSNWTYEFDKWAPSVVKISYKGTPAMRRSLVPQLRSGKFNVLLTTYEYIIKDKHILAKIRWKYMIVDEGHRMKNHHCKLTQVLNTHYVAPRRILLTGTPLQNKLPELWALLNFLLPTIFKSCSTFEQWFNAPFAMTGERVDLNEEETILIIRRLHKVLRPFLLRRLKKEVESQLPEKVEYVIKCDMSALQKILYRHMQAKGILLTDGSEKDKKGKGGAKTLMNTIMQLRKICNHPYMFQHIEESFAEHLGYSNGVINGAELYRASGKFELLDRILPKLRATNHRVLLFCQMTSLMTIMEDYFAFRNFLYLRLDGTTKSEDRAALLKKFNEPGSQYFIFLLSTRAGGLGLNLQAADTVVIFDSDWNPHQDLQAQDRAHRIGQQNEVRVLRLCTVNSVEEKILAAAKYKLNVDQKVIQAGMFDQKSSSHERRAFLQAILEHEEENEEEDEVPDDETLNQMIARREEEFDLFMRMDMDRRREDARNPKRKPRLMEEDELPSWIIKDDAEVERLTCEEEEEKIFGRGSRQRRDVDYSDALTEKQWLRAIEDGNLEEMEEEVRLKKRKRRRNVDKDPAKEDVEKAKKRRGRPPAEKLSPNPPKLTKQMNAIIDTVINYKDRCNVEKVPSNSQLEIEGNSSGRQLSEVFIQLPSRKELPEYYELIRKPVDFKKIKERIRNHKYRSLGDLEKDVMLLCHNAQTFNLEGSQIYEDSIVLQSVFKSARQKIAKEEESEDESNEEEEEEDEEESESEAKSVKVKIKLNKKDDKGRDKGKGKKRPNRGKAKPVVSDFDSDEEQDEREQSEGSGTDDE
T1 sequence (P51532 whole entry, species assumed): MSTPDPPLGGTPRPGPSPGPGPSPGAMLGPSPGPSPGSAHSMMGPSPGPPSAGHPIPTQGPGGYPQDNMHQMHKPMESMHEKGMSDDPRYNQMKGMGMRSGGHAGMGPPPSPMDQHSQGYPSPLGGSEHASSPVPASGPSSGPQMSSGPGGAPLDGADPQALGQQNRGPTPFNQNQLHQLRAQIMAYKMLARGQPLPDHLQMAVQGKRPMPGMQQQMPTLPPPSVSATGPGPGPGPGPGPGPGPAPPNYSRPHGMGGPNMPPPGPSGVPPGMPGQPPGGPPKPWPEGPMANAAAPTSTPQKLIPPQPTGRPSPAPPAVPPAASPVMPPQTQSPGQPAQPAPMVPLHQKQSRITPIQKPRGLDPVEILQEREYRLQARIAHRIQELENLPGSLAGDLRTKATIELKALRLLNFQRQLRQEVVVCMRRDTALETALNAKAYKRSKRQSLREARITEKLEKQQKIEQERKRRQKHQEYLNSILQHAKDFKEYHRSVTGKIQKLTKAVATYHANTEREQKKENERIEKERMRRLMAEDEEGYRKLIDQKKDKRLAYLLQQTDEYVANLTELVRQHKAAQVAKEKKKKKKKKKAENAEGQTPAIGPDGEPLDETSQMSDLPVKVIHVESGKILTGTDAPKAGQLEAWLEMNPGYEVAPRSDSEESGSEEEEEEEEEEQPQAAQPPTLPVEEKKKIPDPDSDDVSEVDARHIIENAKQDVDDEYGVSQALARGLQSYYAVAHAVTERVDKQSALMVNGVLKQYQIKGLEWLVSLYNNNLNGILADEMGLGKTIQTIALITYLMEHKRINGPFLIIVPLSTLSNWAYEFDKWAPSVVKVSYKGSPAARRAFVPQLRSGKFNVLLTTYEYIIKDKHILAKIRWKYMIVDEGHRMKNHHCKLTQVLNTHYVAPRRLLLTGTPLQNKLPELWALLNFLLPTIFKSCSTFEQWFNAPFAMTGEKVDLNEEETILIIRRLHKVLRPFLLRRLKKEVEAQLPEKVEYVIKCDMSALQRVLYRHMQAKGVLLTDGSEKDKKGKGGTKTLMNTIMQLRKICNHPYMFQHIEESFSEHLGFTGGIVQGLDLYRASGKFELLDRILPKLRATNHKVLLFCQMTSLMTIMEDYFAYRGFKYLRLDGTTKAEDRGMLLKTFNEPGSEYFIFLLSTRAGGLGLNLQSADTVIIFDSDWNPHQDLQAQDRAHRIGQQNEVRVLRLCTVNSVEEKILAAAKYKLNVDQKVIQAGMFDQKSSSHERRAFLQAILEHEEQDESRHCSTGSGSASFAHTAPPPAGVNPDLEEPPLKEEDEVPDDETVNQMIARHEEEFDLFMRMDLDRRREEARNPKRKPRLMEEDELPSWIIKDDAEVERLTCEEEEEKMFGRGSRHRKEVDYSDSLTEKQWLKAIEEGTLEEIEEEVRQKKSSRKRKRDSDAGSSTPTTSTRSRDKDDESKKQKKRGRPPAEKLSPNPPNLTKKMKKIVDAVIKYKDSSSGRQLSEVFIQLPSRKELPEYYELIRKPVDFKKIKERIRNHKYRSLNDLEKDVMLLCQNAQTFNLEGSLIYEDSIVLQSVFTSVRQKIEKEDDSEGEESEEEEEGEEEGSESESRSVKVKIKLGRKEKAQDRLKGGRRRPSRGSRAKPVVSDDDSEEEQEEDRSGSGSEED

Row | Structure (SMILES) | DC50 (SMARCA4) [nM] | Dmax (SMARCA4) [%] | DC50 (SMARCA2) [nM] | Dmax (SMARCA2) [%] | Fold Selectivity SMARCA4/2 (SMARCA2)
1 | COC1(C(=O)N2CCC3(CC2)CN(CC2CCN(c4ccc([C@H]5CCC(=O)NC5=O)cc4)CC2)C3)CCN(c2cnnc(-c3ccccc3O)c2)CC1 [Example 120, (r)-3-(4-(4-((7-(1-(6-(2-hydroxyphenyl)pyridazin-4-yl)-4-methoxypiperidine-4-carbonyl)-2,7-diazaspiro[3.5]nonan-2-yl)methyl)piperidin-1-yl)phenyl)piperidine-2,6-dione] |  | 50 | 7.6 | 78.4 | 1316
2 | CN(C(=O)C1(Oc2ccn(C)n2)CCN(c2cnnc(-c3ccccc3O)c2)CC1)C1CCN(CC2CCN(c3ccc([C@H]4CCC(=O)NC4=O)cc3)CC2)CC1 [Example 125, (r)-n-(1-((1-(4-(2,6-dioxopiperidin-3-yl)phenyl)piperidin-4-yl)methyl)piperidin-4-yl)-1-(6-(2-hydroxyphenyl)pyridazin-4-yl)-n-methyl-4-((1-methyl-1h-pyrazol-3-yl)oxy)piperidine-4-carboxamide] | 36.9 | 62.5 | 6.01 | 82 | 6
3 | COc1ccccc1C1(C(=O)N(C)C2CCN(CC3CCN(c4ccc([C@H]5CCC(=O)NC5=O)cc4)CC3)CC2)CCN(c2cnnc(-c3ccccc3O)c2)CC1 [Example 133, N-{1-[(1-{4-[(3R)-2,6-dioxopiperidin-3-yl]phenyl}piperidin-4-yl)methyl]piperidin-4-yl}-1-[6-(2-hydroxyphenyl)pyridazin-4-yl]-4-(2-methoxyphenyl)-n-methylpiperidine-4-carboxamide] | 20.5 | 74.8 | 2.5 | 90.5 | 8
4 | O=C1CC[C@@H](c2ccc(N3CCC(CN4CCC(NCC5(c6ccccc6)CCN(c6cnnc(-c7ccccc7O)c6)CC5)CC4)CC3)cc2)C(=O)N1 [Example 135, (s)-3-(4-(4-((4-(((1-(6-(2-hydroxyphenyl)pyridazin-4-yl)-4-phenylpiperidin-4-yl)methyl)amino)piperidin-1-yl)methyl)piperidin-1-yl)phenyl)piperidine-2,6-dione] | 191 | 61.9 | 20.7 | 74.2 | 9
5 | CN(C(=O)C1(c2ccncc2)CCN(c2cnnc(-c3ccccc3O)c2)CC1)C1CCN(CCC2CCN(c3ccc([C@H]4CCC(=O)NC4=O)cc3)CC2)CC1 [Example 140, N-{1-[2-(1-{4-[(3R)-2,6-dioxopiperidin-3-yl]phenyl}piperidin-4-yl)ethyl]piperidin-4-yl}-1-[6-(2-hydroxyphenyl)pyridazin-4-yl]-N-methyl-4-(pyridin-4-yl)piperidine-4-carboxamide] |  | 31.2 | 3.79 | 86.9 | 2641
6 | O=C1CC[C@H](NC(=O)c2ccc(N3CCC(CN4CCC(NC(=O)C5(c6ccccc6)CCN(c6cnnc(-c7ccccc7O)c6)CC5)CC4)CC3)nc2)C(=O)N1 [Example 156, N-[(3S)-2,6-dioxopiperidin-3-yl]-6-{4-[(4-{l-[6-(2-hydroxyphenyl)pyridazin-4-yl]-4-phenylpiperidine-4-amido}piperidin-1-yl)methyl]piperidin-1-yl}pyridine-3-carboxamide] |  | 36 | 38.5 | 63.2 | 260
7 | O=C1CC[C@H](n2ccc3cc(N4CCC(CN5CCC(NC(=O)C6(c7ccccc7)CCN(c7cnnc(-c8ccccc8O)c7)CC6)CC5)CC4)ccc3c2=O)C(=O)N1 [Example 157, N-{1-[(1-{2-[(3S)-2,6-dioxopiperidin-3-yl]-1-oxo-1,2-dihydroisoquinolin-6-yl}piperidin-4-yl)methyl]piperidin-4-yl}-1-[6-(2-hydroxyphenyl)pyridazin-4-yl]-4-phenylpiperidine-4-carboxamide] | 8.12 | 82.6 | 1.56 | 91.8 | 5
8 | Cc1ccn(C2(C(=O)NC3CCN(CC4CCN(c5ccc([C@H]6CCC(=O)NC6=O)cc5)CC4)C4(CCC4)C3)CCN(c3cnnc(-c4ccccc4O)c3)CC2)n1 (stereo partly drawn) [Example 162, N-{5-[(1-{4-[(3R)-2,6-dioxopiperidin-3-yl]phenyl}piperidin-4-yl)methyl]-5-azaspiro[3.5]nonan-8-yl}-1-[6-(2-hydroxyphenyl)pyridazin-4-yl]-4-(3-methyl-1H-pyrazol-1-yl)piperidine-4-carboxamide] | 25.9 | 63.9 | 2.62 | 84.7 | 10

The remaining molecules from weak to strong by DC50 (SMARCA2), led by results:

Row | DC50 (SMARCA4) [nM] | Dmax (SMARCA4) [%] | DC50 (SMARCA2) [nM] | Dmax (SMARCA2) [%] | Fold Selectivity SMARCA4/2 (SMARCA2) | Structure (SMILES)
9 |  | 35 | 68.1 | 66.8 | 147 | Cn1nc(N2CCC(=O)NC2=O)c2cccc(N3CCC(CN4CC5(C4)CN(C(=O)C4(c6ccccc6)CCN(c6cnnc(-c7ccccc7O)c6)CC4)C5)CC3)c21 [Example 123, 1-(7-{4-[(6-{1-[6-(2-hydroxyphenyl)pyridazin-4-yl]-4-phenylpiperidine-4-carbonyl}-2,6-diazaspiro[3.3]heptan-2-yl)methyl]piperidin-1-yl}-1-methyl-1H-indazol-3-yl)-1,3-diazinane-2,4-dione]
10 |  | 32.4 | 31.9 | 70.8 | 313 | O=C1CC[C@H](c2ccc(N3CCC(CN4CCC(NC(=O)C5(C6CCOCC6)CCN(c6cnnc(-c7ccccc7O)c6)CC5)CC45CCC5)CC3)cc2)C(=O)N1 (stereo partly drawn) [Example 161, N-{5-[(1-{4-[(3R)-2,6-dioxopiperidin-3-yl]phenyl}piperidin-4-yl)methyl]-5-azaspiro[3.5]nonan-8-yl}-1-[6-(2-hydroxyphenyl)pyridazin-4-yl]-4-(oxan-4-yl)piperidine-4-carboxamide]
11 | 167 | 54 | 4.55 | 89.2 | 37 | COc1cccc(C2(C(=O)N(C)C3CCN(CCC4CCN(c5ccc([C@H]6CCC(=O)NC6=O)cc5)CC4)CC3)CCN(c3cnnc(-c4ccccc4O)c3)CC2)c1 [Example 139, N-{1-[2-(1-{4-[(3R)-2,6-dioxopiperidin-3-yl]phenyl}piperidin-4-yl)ethyl]piperidin-4-yl}-1-[6-(2-hydroxyphenyl)pyridazin-4-yl]-4-(3-methoxyphenyl)-N-methylpiperidine-4-carboxamide]
12 | 20.3 | 79.4 | 3.52 | 89.2 | 6 | O=C1CC[C@H](c2ccc(N3CCC(CN4CC5(C4)CN(C(=O)C4(Oc6ccccc6Cl)CCN(c6cnnc(-c7ccccc7O)c6)CC4)C5)CC3)cc2)C(=O)N1 [Example 119, (r)-3-(4-(4-((6-(4-(2-chlorophenoxy)-1-(6-(2-hydroxyphenyl)pyridazin-4-yl)piperidine-4-carbonyl)-2,6-diazaspiro[3.3]heptan-2-yl)methyl)piperidin-1-yl)phenyl)piperidine-2,6-dione]
13 | 22.3 | 65.6 | 2.87 | 87.7 | 8 | Cc1cnn(C2(C(=O)N(C)C3CCN(CC4CCN(c5ccc([C@H]6CCC(=O)NC6=O)cc5)CC4)CC3)CCN(c3cnnc(-c4ccccc4O)c3)CC2)c1 [Example 154, N-{1-[(1-{4-[(3R)-2,6-dioxopiperidin-3-yl]phenyl}piperidin-4-yl)methyl]piperidin-4-yl}-1-[6-(2-hydroxyphenyl)pyridazin-4-yl]-N-methyl-4-(4-methyl-1H-pyrazol-1-yl)piperidine-4-carboxamide]

Source: US20250051344A1, “BIFUNCTIONAL SELECTIVE DEGRADERS OF SMARCA2 AND THERAPEUTIC USES THEREOF” (Nurix Therapeutics, Inc., priority 2023, published 2025)
